Read-outs that look alike come from different tables or passages of the source.
Columns and labels:
KDR kinase (790-1356 AA) = KDR kinase (790-1356 AA) (Homo sapiens (Human), UniProt P35968); assay: Inhibitory activity at KDR kinase (Lance Ultra Ulight-TK assay); format: biochemical
Summary of the method: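 Kinase (20 nM final) and compound were premixed 20 min at 30 °C, then phosphorylation ran 2 h at 30 °C with ATP at 90 μM and Ulight-TK substrate at 50 μM, pH 7.5, Mg2+ and Mn2+ present.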

B-Raf kinase = B-Raf kinase (Homo sapiens (Human), UniProt P15056); assay: Inhibitory activity at B-Raf kinase (ADP-GLO assay); format: biochemical
Sequence of B-Raf kinase (P15056 416-766): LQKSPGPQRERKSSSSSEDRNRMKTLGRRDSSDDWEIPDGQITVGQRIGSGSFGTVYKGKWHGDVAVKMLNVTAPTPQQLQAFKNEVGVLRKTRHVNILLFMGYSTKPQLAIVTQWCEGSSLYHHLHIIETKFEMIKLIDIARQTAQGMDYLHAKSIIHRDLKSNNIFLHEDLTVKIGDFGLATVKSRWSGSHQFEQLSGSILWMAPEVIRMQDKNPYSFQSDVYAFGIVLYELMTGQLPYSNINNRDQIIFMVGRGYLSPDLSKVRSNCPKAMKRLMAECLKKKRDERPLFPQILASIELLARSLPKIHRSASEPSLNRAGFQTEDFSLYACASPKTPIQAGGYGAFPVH
Method: Inhibitory Activity of Compounds at B-Raf Kinase
• [Experimental method]: Use ADP-GLO™ assay kit from Promega to evaluate the inhibitory activity of compounds at B-Raf • [Instrument]: PerKinElmer's ENVISION plate reader • [Material]: Optiplate-384 well plate (PerKinElmer), kinase buffer (50 mM Hepes pH7.5, 1 mM EGTA, 2 mM DTT, 10 mM Mg^2+, 0.05% BSA), B-Raf kinase (Millipore, catalogue #14-530-K), GST-MEK1 substrate (Carna, catalogue #07-141-10), Super pure ATP (Promega), ADP-GLO™ assay kit (Promega, catalogue # V9102), DMSO (Sigma, catalogue #34869), purified water (Millipore, type: Milli-Q). • [Study conditions]: Mix B-Raf kinase (final concentration: 5 nM) and compound (DMSO final concentration: 0.25%) and preincubate at 30° C. for 20 min, then add ATP (final concentration: 6 μM) and reaction substrate (final concentration: 30 nM), React for 2 hrs at 30° C. After reaction, add ADP-GLO™ reagent, react for 40 min at room temperature, then add ADP-GLO™ detecting agent, react for 30 min at room temperature. After that, use ENVSION to measure the […]. • [Samples]: Compounds in the examples and Sorafenib (positive control) • [Data analysis]: Use CBIS data analysis software to calculate IC50 values

pERK in MDA-MB-231 cells = assay: Inhibitory activity at pERK (In Cell Western, MDA-MB-231 cells); format: cell-based; details: read-out: MDA-MB-231 pERK IC50
Summary of the method: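 pERK was measured by in-cell immunofluorescence (PI nuclear counterstain, Acumen read-out) in fixed MDA-MB-231 cells. Compound exposure lasted 2 h in DMEM with 0.1% BSA, using eight 3-fold dilutions starting at 30 μM final and 0.3% DMSO. IC50 values were derived from the resulting curves.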

PLC-PRF-5 cells = assay: Inhibition of proliferation of PLC-PRF-5 cells (ATPlite); format: cell-based; details: Homo sapiens, PLC-PRF-5, PLC-PRF-5 cells; read-out: PLC-PRF-5 cell proliferation IC50
Summary of the method: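 Antiproliferative IC50 from luminescent ATP detection (ATPlite) after 96 h compound exposure at 37 °C. Cells grown in DMEM plus 10% FBS and allowed 2 h to settle, then dosed with eight 3-fold dilutions topping at 30 μM final, DMSO 0.3%.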

[1] = Homo sapiens, MDA-MB-231, MDA-MB-231 cells

Sequence of KDR kinase (790-1356 AA) (P35968 790-1356): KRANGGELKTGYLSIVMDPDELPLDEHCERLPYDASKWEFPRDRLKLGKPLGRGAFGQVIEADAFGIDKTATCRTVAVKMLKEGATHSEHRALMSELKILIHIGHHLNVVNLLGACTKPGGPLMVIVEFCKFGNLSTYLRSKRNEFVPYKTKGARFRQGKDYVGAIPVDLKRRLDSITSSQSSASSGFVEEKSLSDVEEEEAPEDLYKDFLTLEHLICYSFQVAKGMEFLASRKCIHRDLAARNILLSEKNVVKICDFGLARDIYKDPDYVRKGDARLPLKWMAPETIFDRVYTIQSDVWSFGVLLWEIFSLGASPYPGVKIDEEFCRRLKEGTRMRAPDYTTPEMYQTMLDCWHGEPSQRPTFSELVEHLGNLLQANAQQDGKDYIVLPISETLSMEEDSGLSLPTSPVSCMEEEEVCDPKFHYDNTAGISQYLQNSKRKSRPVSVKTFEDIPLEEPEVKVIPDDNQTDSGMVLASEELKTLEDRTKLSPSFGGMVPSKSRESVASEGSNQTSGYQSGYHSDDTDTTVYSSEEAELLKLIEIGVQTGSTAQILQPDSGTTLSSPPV

IC50 (KDR kinase (790-1356 AA)) [nM] | IC50 (B-Raf kinase) [nM] | IC50 (pERK in MDA-MB-231 cells; [1]) [nM] | IC50 (pERK in MDA-MB-231 cells; MDA-MB-231 cells) [nM] | SMILES | IC50 (PLC-PRF-5 cells) [nM]
9.5 | 29 | 22.4 |  | Cc1ccc(Oc2ccnc(NC(=O)C3CC3)c2)cc1NC(=O)Nc1cc(F)cc(C(F)(F)F)c1 [Exe. 224] | 4700
9.9 | 16 | 6.8 |  | Cc1cc(NC(=O)Nc2cc(C(C)(F)F)ccc2F)ccc1Oc1ccnc(NC(=O)C2CC2)c1 [Exe. 234] | 63
10.5 | 146 | 77.5 |  | Cc1cc(Oc2cc(NC(=O)C3CC3)ncn2)ccc1NC(=O)Nc1cccc(C(F)(F)F)c1 [Exe. 074] | 6070
11 | 8.3 | 8.8 |  | CC(F)(F)c1cc(NC(=O)Nc2ccc(Oc3ccnc(NC(=O)C4CC4)c3)cc2F)ccc1Cl [Exe. 219] | 632
8.2 | 5.3 | 23.5 |  | CN1CCC(Oc2cc(NC(=O)Nc3ccc(Oc4ccnc(NC(=O)C5CC5)c4)c(F)c3)cc(C(F)(F)F)c2)C1 (centres unmarked) [Exe. 038] | 130
5.5 | 6.6 | 41 |  | CS(=O)(=O)Nc1cc(NC(=O)Nc2ccc(Oc3ccnc(NC(=O)C4CC4)c3)c(F)c2)cc(C(F)(F)F)c1 [Exe. 165] | 1070
11.8 | 10 | 9.4 |  | Cc1cc(Oc2ccnc(NC(=O)C3CC3)c2)ccc1NC(=O)Nc1ccc(F)c(C(F)(F)F)c1 [Exe. 191] | 2530
14 | 11.7 | 11 |  | Cc1cc(Oc2ccnc(NC(=O)C3CC3)c2)ccc1NC(=O)Nc1ccc(Cl)c(C(C)(F)F)c1 [Exe. 199] | 3700
6.2 | 16 | 7.7 |  | CC(F)(F)c1ccc(F)c(NC(=O)Nc2ccc(Oc3ccnc(NC(=O)C4CC4)c3)cc2)c1 [Exe. 148] | 240
10.4 | 39 | 13.9 |  | O=C(Nc1ccc(Oc2ccnc(NC(=O)C3CC3)c2)cc1)Nc1cc(C(F)(F)F)ccc1Cl [Exe. 142] | 642
7.8 | 6.4 | 2.3 |  | O=C(Nc1cccc(C(F)(F)F)c1)Nc1ccc(Oc2ccnc(NC(=O)C3CC3)c2)cc1F [Exe. 211] | 190
10.2 | 9.4 | 4.7 |  | O=C(Nc1cccc(OC(F)(F)F)c1)Nc1ccc(Oc2ccnc(NC(=O)C3CC3)c2)cc1F [Exe. 034] | 219
14.9 | 7.1 | 4.6 |  | CC(F)(F)c1cc(NC(=O)Nc2ccc(Oc3ccnc(NC(=O)C4CC4)c3)cc2F)ccc1F [Exe. 220] | 240
10.5 | 8.8 | 9.5 |  | Cc1cc(Oc2ccnc(NC(=O)C3CC3)c2)ccc1NC(=O)Nc1cccc(OC(F)(F)F)c1 [Exe. 194] | 2320
7.8 | 8.9 | 9.3 |  | CC(F)(F)c1cc(F)cc(NC(=O)Nc2ccc(Oc3ccnc(NC(=O)C4CC4)c3)cc2F)c1 [Exe. 035] | 259
11.4 | 30 | 6 |  | O=C(Nc1ccc(Oc2ccnc(NC(=O)C3CC3)c2)cc1)Nc1cccc(C(F)(F)F)c1 [Exe. 144] | 403
11.6 | 24 | 32.9 |  | C=CC(=O)Nc1cc(NC(=O)Nc2ccc(Oc3ccnc(NC(=O)C4CC4)c3)c(F)c2)cc(C(F)(F)F)c1 [Exe. 163] | 998

Continued, compound first:

SMILES | IC50 (KDR kinase (790-1356 AA)) [nM] | IC50 (B-Raf kinase) [nM] | IC50 (pERK in MDA-MB-231 cells; [1]) [nM] | IC50 (pERK in MDA-MB-231 cells; MDA-MB-231 cells) [nM] | IC50 (PLC-PRF-5 cells) [nM]
O=C(Nc1ccc(Cl)c(C(F)(F)F)c1)Nc1ccc(Oc2ccnc(NC(=O)C3CC3)c2)cn1 [Exe. 021] | 7.5 | 24.7 | 10.2 |  | 600
CC(F)(F)c1cncc(NC(=O)Nc2ccc(Oc3ccnc(NC(=O)C4CC4)c3)cc2)c1 [Exe. 065] | 6.5 | 25 | 46.5 |  | 162
O=C(Nc1cc(N2CCS(=O)(=O)CC2)cc(C(F)(F)F)c1)Nc1ccc(Oc2ccnc(NC(=O)C3CC3)c2)c(F)c1 [Exe. 166] | 11.5 | 27 | 45.5 |  | 1640
O=C(Nc1cccc(C(F)(F)F)c1)Nc1ccc(Oc2cc(NC(=O)C3CC3)ncn2)cc1F [Exe. 108] | 8.6 | 41 | 20 |  | 1610
CC(F)(F)c1cc(NC(=O)Nc2ccc(Oc3ccnc(NC(=O)C4CC4)c3)c(F)c2)ccc1F [Exe. 183] | 13.6 | 56 | 15.7 |  | 230
CN1CCC(Nc2cc(NC(=O)Nc3ccc(Oc4ccnc(NC(=O)C5CC5)c4)nc3)cc(C(F)(F)F)c2)CC1 [Exe. 131] | 6.1 | 12.5 | > 1000 |  | 10500
O=C(Nc1ccc(Oc2cc(NC(=O)C3CC3)ncn2)c(F)c1)Nc1ccc(Cl)c(C(F)(F)F)c1 [Exe. 008] | 5.7 | 24.9 | 124 |  | 4550
CC(F)(F)c1ccc(F)c(NC(=O)Nc2ccc(Oc3ccnc(NC(=O)C4CC4)c3)c(F)c2)c1 [Exe. 181] | 7.1 | 4.8 | 25.7 |  | 23
CC(F)(F)c1cncc(NC(=O)Nc2ccc(Oc3ccnc(NC(=O)C4CC4)c3)c(F)c2)c1 [Exe. 056] | 17.5 | 65 | 39.7 |  | 110
CC(F)(F)c1cc(NC(=O)Nc2ccc(Oc3ccnc(NC(=O)C4CC4)c3)cc2)ccc1Cl [Exe. 149] | 25.4 | 38 | 25.4 |  | 800
O=C(Nc1ccc(OC(F)(F)F)cc1)Nc1ccc(Oc2ccnc(NC(=O)C3CC3)c2)c(F)c1 [Exe. 178] | 5.3 | 34.7 | 159 |  | 4880
CN1CCC(Oc2cc(NC(=O)Nc3ccc(Oc4ccnc(NC(=O)C5CC5)c4)c(F)c3)cc(C(F)(F)F)c2)CC1 [Exe. 164] | 30.7 | 71.5 | 198 |  | 2950
O=C(Nc1ccc(Oc2ccnc(NC(=O)C3CC3)c2)cc1)Nc1cc(OCC2CNC2)cc(C(F)(F)F)c1 [Exe. 237, N-[4-[4-[[3-(azetidin-3-ylmethoxy)-5-(trifluoromethyl)phenyl]carbamoylamino]phenoxy]-2-pyridyl]cyclopropanecarboxamide] | 13.9 | 3.7 | 730 |  | 14900
O=C(Nc1ccc(Oc2ccnc(NC(=O)C3CC3)c2)c(F)c1)Nc1ccc(Cl)c(C(F)(F)F)c1 [Exe. 022] | 4.3 | 3.6 |  | 19.5 | 1710
O=C(Nc1ccc(Oc2ccnc(NC(=O)C3CC3)c2)nc1)Nc1cc(N2CCS(=O)(=O)CC2)cc(C(F)(F)F)c1 [Exe. 132] | 10 | 39 | 341 |  | 5910
O=C(Nc1cc(N2CCOCC2)cc(C(F)(F)F)c1)Nc1ccc(Oc2ccnc(NC(=O)C3CC3)c2)c(F)c1 [Exe. 189] | 10.7 | 29.8 | 19.3 |  | 260
Cc1cc(Oc2ccnc(NC(=O)C3CC3)c2)ncc1NC(=O)Nc1cc(C(C)(F)F)ccc1F [Exe. 128] | 9.8 | 6.2 | 38 |  | 819
O=C(Nc1ccc(Oc2ccnc(NC(=O)C3CC3)c2)c(F)c1)Nc1cc(Cl)ccc1F [Exe. 184] | 7.6 | 73.4 | 310 |  | 610
CN1CCN(Cc2cc(NC(=O)Nc3ccc(Oc4ccnc(NC(=O)C5CC5)c4)c(F)c3)cc(C(F)(F)F)c2)CC1 [Exe. 167] | 16.1 | 23.8 | 262 |  | 1230
O=C(Nc1ccc(Oc2ccnc(NC(=O)C3CC3)c2)c(F)c1)Nc1ccc2[nH]cc(F)c2c1 [Exe. 059] | 8.2 | 90 | 19.4 |  | 643
CC(F)(F)c1ccc(F)c(NC(=O)Nc2ccc(Oc3cc(NC(=O)C4CC4)ncn3)cc2F)c1 [Exe. 109] | 10.9 | 32 | 9.8 |  | 274
